Assay results taken from article PMC4851402, “Validation of N-myristoyltransferase as Potential Chemotherapeutic Target in Mammal-Dwelling Stages of Trypanosoma cruzi” (PLoS Neglected Tropical Diseases, 2016).
“Also recorded” adds a separate entry of the source. Read-outs that look alike come from different tables or passages of the source.

Assays:
[1] = test system: T. cruzi intracellular amastigote proliferation; test: In vitro T. cruzi intracellular proliferation assay in infected U2OS cells, high-content imaging; assay type: cell-based, Trypanosoma cruzi (Y strain); settings: read-out: T. cruzi proliferation assay EC50
Procedure: DMSO control wells contained 30 μL 6% DMSO. Human […] (U2OS cells) were diluted in DMEM, 10% heat inactivated-fetal bovine serum (HI-FBS) to give a cell density of 2 x 10^5 cells/mL. T. cruzi trypomastigotes were resuspended in DMEM, 10% HI-FBS to a final density of 1.2 x 10^7. Cells and parasites were mixed a ratio of 4 volumes of cells plus 1 volume of parasites. 150 μL of the mixture were dispensed per well. Plates were incubated for 48 h. After the incubation period, media was removed from the wells and 100 μL 4% paraformaldehyde (PFA) were added. After 15 min of incubation at room temperature, PFA was removed and cells and parasites were stained with Draq5 (BioStatus, Leicestershire, UK) at a concentration of 5 μM diluted in PBS. The plates were then read in a bioimager system as described below. Three independent experiments were performed in triplicate wells.
Filter sets appropriate for the excitation and emission spectra of Draq5 were utilized. Images from four fields (2 x 2 montage) were acquired per well with a 20x objective. To perform the host cell segmentation and counting of parasites, the BD AttoVision v1.6.2 Sub Object analysis was used. Draq5 creates a background, staining the host cell and parasite nucleus, but defining the cytoplasm as well, determining this way the amount of parasites within each mammalian cell. The host cell nucleus was excluded by size difference. Raw data was imported into the BD Image Data Explorer (BD Biosciences) to determine the percentage of infected cells containing at least 1, at least 3 or at least 5 intracellular parasites.
(§1) EC50 were determined from three independent experiments.

[2] = test system: Purified ICAs of T. cruzi; test: microbe, parasite or virus in culture; assay type: cell-based, Trypanosoma cruzi (Y strain); settings: for EC50: read-out: Purified ICAs EC50
Procedure: Intracellular amastigote (ICA) forms were purified as described. Briefly, 5 x 10^6 LLC-MK2 cells were seeded in a 150-cm^2 tissue culture flask (NUNC, Thermo Scientific) and cells were grown for 3–4 days to reach confluency of ~2 x 10^7 cells per flask. The medium was then replaced with fresh complete medium and host cells were infected with 1 x 10^8 TCT (multiplicity of infection (MOI) ≈ 5). After 5 days, the infected monolayers were gently detached by scraping and resuspended in 5 mL phosphate-buffered saline (PBS). The suspension containing the infected cells was next transferred to an M-tube (Miltenyi Biotec Inc., San Diego, CA). This tube bears a special stator and rotor that allows for tissue homogenization. In addition, it has a pre-inserted mesh that retains larger particles, removing them from the homogenized sample. The tube was then placed in the gentleMACS Dissociator (Miltenyi Biotec) for the automated disruption of host cells. The homogenized sample containing the parasites was then passed through a column containing anion exchange preswollen microgranular diethylaminoethyl cellulose (DE52, Whatman, Sigma-Aldrich).
(§2) DMSO control wells contained 30 μL 6% DMSO, whereas wells for the negative control contained 1% hydrogen peroxide in DMEM. U2OS cells were resuspended in DMEM, 10% HI-FBS, to give a cell density of 2 x 10^5 cells/mL, while ICA forms were resuspended in DMEM, 10% HI-FBS, to a final density of 1 x 10^7 per well. Epi forms were resuspended in LIT medium to a density of 1 x 10^6 parasites per well. Hundred and fifty microliters of the suspension containing either host cells or parasites were added per well. Following 47- and 23-h incubation at 37°C for mammalian cells and ICA, respectively, a mixture of propidium iodide (Invitrogen) and Hoechst dye (Invitrogen) diluted in culture media (1 μg/mL each) was added to the plates, which were then further incubated for 1 h at 37°C. […] In the case of Epi, after 68-h incubation at 28°C, 18 μL Alamar Blue (AbD Serotec, Raleigh, NC) were added per well. Following an additional 4-h incubation, the plate was read in a microplate fluorometer (Thermo Scientific) at excitation 560 nm, emission 590 nm. Three independent experiments were performed in triplicate wells.
as §1

TcNMT [3] = test: Metabolic labeling with myristic acid, azide and in-gel western blotting (on-target); assay type: cell-based, Trypanosoma cruzi; settings: 10 μM, 12 h, Epi, ICA and TCT
Procedure: Parasites were incubated with or without 10 μM of the inhibitor 1, 5, or 8 in 1 mL 2% delipidated BSA-DMEM at 37°C for ICA and TCT and at 28°C for Epi. After 6 h, 100 μM myristic acid, azide (from a 50-mM stock in DMSO) were added to the samples, and the same volume of DMSO was added to the negative control. Cells were incubated for another 6 h, for a 12-h treatment with the inhibitors. Next, the parasites were washed three times with PBS and lysed in 1% SDS, Tris-HCl, pH 8.0. “Click” reaction was performed between the myristic acid azide and Biotin Alkyne (Invitrogen) according to the manufacturer instructions using the Click-iT Protein Reaction Buffer Kit (Invitrogen). Duplicate aliquots of lysates were ran in 10% SDS-PAGE followed by fixing (5% acetic acid, 50% isopropanol) for 15 min. Gels were then analyzed by in-gel western blotting using IRDye streptavidin (LI-COR Biosciences, Lincoln, NE) 1:7500 in 5% BSA, 0.05% SDS, 0.2% Tween in PBS, for 1 h at room temperature. They were subsequently treated or not with 0.2 M NaOH in methanol for 1 h at room temperature. Gels were scanned in an ODYSSEY quantitative imagining system (LI-COR Biosciences). They were next stained with Coomassie blue and scanned again to determine total protein levels.

[4] = test system: T. cruzi epimastigotes (Epi); test: Cytotoxicity assay on epimastigotes (Alamar Blue); assay type: cell-based, Trypanosoma cruzi (Y strain); settings: after 72 h; for EC50: Trypanosoma cruzi, read-out: Epi forms EC50
Procedure: DDD compounds 1–8 and the reference drug BZ were prepared 6-fold-concentrated in 6% DMSO, to give a final concentration of 1x compound in 1% DMSO. […] DMSO control wells contained 30 μL 6% DMSO, whereas wells for the negative control contained 1% hydrogen peroxide in DMEM. U2OS cells were resuspended in DMEM, 10% HI-FBS, to give a cell density of 2 x 10^5 cells/mL, while ICA forms were resuspended in DMEM, 10% HI-FBS, to a final density of 1 x 10^7 per well. Epi forms were resuspended in LIT medium to a density of 1 x 10^6 parasites per well. Hundred and fifty microliters of the suspension containing either host cells or parasites were added per well. Following 47- and 23-h incubation at 37°C for mammalian cells and ICA, respectively, a mixture of propidium iodide (Invitrogen) and Hoechst dye (Invitrogen) diluted in culture media (1 μg/mL each) was added to the plates, which were then further incubated for 1 h at 37°C. Finally, plates were read in the BD Pathway 855 bioimager system. In the case of Epi, after 68-h incubation at 28°C, 18 μL Alamar Blue (AbD Serotec, Raleigh, NC) were added per well. Following an additional 4-h incubation, the plate was read in a microplate fluorometer (Thermo Scientific) at excitation 560 nm, emission 590 nm. Three independent experiments were performed in triplicate wells. […] EC50 were determined from three independent experiments.

U2OS cells = test: Cytotoxicity (viability) assay on non-infected U2OS cells, high-content imaging; assay type: cell-based, human; settings: for EC50: Homo sapiens, read-out: U2OS cells EC50; for Toxicity on U2OS cells: after 48 h of treatment
Procedure: as §2, §1

TcNMT [5] = test: Western blotting of TcNMT expression in treated parasites; assay type: cell-based, Trypanosoma cruzi; settings: 10 μM, 12 h
Procedure: Parasites (1 x 10^7 cells) were incubated with or without 10 μM of the inhibitor (compound 1, 5, or 8) in 1 mL 10% HI-FBS, DMEM at 37°C for ICA and TCT, and at 28°C for Epi for 12 h. Next, parasites were washed three times with PBS and lysed in 1% SDS, Tris-HCl, pH 8.0. Samples were run in 10% SDS-PAGE followed by western blot probed with anti-TcNMT at dilution 1:1000 in 5% milk-PBS overnight. This was followed by incubation with anti-rabbit IgG-HRP conjugated. The membrane was next stripped with boiling stripping buffer (3% SDS, 0.3% β-mercaptoethanol) for 10 min, followed by 4 washes with 0.1% PBS-T. It was then blot again with anti-BiP at dilution 1:500 in 5% milk-PBS overnight, at 4°C, followed by anti-rabbit IgG HRP-conjugated.

[6] = test system: Epi, ICA and TCT forms of T. cruzi; test: [35S]-Methionine labeling (protein translation); assay type: cell-based, Trypanosoma cruzi; settings: 10 μM, 12 h
Procedure: Parasites were incubated with or without 10 μM of the inhibitors as described above. After 10 h, cells were starved in methionine deficient media for 1 h. Next, 20 μCi.mL^-1 [^35S]-methionine (Perkin Elmer) were added to the samples for 1 h incubation, for a 12-h treatment with the inhibitors. Next, the parasites were washed three times with PBS and lysed in 1% SDS, Tris-HCl, pH 8.0. Samples were ran in 4–12% gels (Expedeon, San Diego, CA) and transferred to polyvinylidene fluoride (PVDF) membranes (Sigma-Aldrich). Membranes were dried and exposed to Hyperfilm ECL (Amersham, GE Healthcare Lifesciences, Piscataway, NJ). To determine total protein levels, membranes were stained with Ponceau S after exposure.

T. brucei = test system: T. brucei; design: method as in PMID 20360736; settings: T. brucei bloodstream forms; cited from earlier work
[7] = Trypanosoma cruzi, U2OS, 48 h, infected U2OS cells, 48 h at 37°C
[8] = Trypanosoma cruzi, 24 h, purified ICAs, 24 h at 37°C
[9] = non-infected U2OS cells, 48 h at 37°C

Row | Compound | EC50 [1, 7] | EC50 [2, 8] | Protein N-myristoylation bands (myristic acid azide labeling) (TcNMT [3]) | EC50 (U2OS cells; [9]) | Toxicity on U2OS cells (U2OS cells) | TcNMT expression in Epi (TcNMT [5]) | Incorporation of [35S]-methionine into proteins [6] | further results
1 | Cc1nn(C)c(C)c1N(C(F)F)S(=O)(=O)c1c(Cl)cc(CCCC2CCN(C)CC2)cc1Cl [Compound 5] | 260 nM | 60 nM | decreased intensity or complete loss of most of the bands | 11400 nM | toxicity only at 50 μM | overexpression of TcNMT | no effect | EC50 [4]: 9700 nM
2 | Cc1c(NS(=O)(=O)c2ccc(CCCC3CCN(C)CC3)cc2)c(CC(C)C)nn1C [Compound 4] | 540 nM | > 50000 nM |  | > 50000 nM |  |  |  | 
3 | Cc1nn(C)c(Cl)c1NS(=O)(=O)c1c(Cl)cc(-c2ccnc(N3CCNCC3)c2)cc1Cl [Compound 2] | 1140 nM | > 50000 nM |  | > 50000 nM |  |  |  | Efficacy in mouse model of human African trypanosomiasis (T. brucei): curative; EC50 ([1]; infected U2OS cells, 48 h at 37°C): 1100 nM; Trypanocidal activity against purified ICA forms ([2]; purified ICA): no significant trypanocidal activity; also recorded: not trypanocidal
4 | Cc1nn(C)c(C)c1N(CC(F)(F)F)S(=O)(=O)c1c(Cl)cc(CCCC2CCN(C)CC2)cc1Cl [Compound 7] | 1010 nM | 11100 nM |  | 13900 nM |  |  |  | 
5 | Cc1c(NS(=O)(=O)c2c(Cl)cc(-c3ccnc(N4CCNCC4)c3)cc2Cl)c(CC(C)C)nn1C [Compound 1] | 180 nM | 1830 nM | decreased intensity or complete loss of most of the bands | 12800 nM | toxicity only at 50 μM | overexpression of TcNMT | no effect | EC50 ([2]; purified ICAs, 24 h at 37°C): 1800 nM; Effect on Epi parasite viability [4]: did not have a significant effect
6 | Cc1nn(C)c(C)c1NS(=O)(=O)c1c(Cl)cc(CCCN2CCN(C)CC2)cc1Cl [Compound 3] |  |  |  |  |  |  |  | EC50 ([1]; Trypanosoma cruzi, U2OS, 48 h): 10300 nM; EC50 ([2]; Trypanosoma cruzi, 24 h): > 50000 nM; EC50 (U2OS cells; U2OS, 48 h): > 50000 nM
7 | Cc1nn(C)c(C)c1N(C(F)F)S(=O)(=O)c1c(Cl)cc(CCCCC2CCN(C)CC2)cc1Cl [Compound 8] | 350 nM | 20 nM | decreased intensity or complete loss of most of the bands | 11900 nM | toxicity only at 50 μM | overexpression of TcNMT | no effect | EC50 [4]: 2100 nM
8 | Cc1c(NS(=O)(=O)c2ccc(-c3cccc(CN(C)C)c3)cc2)c(CC(C)C)nn1C [Compound 6] | 990 nM | > 50000 nM |  | > 50000 nM |  |  |  | 
